For two molecules, melting point results are on record in patent publication US7491714B2 (dated 2009).

In general, melting point refers to the temperature, or range, at which the solid turns liquid.

The molecule `COc1ccc2nccc([C@@H]3CN(CCCNS(=O)(=O)c4ccc5c(c4)NC(=O)CO5)C(=O)O3)c2c1` gave a melting point of 150 to 155 °C.
The figure for `COc1ccc2nccc([C@@H]3CN(CCCNS(=O)(=O)c4ccc5c(c4)NC(=O)CCS5)C(=O)O3)c2c1` is 128 to 130 °C.
